Results from patent US5608095A, “Alkyl-4-silyl-phenols and esters thereof as antiatherosclerotic agents” (Hoechst Marion Roussel, Inc., priority 1996, dated 1997).
Where two headings read alike, the source gives them in different places.

Assays:
VCAM-1 = assay: Cell surface ELISA for VCAM-1 in human umbilical vein endothelial cells (HUVEC), TNF-alpha induced; format: cell-based; settings: 50 μM, average of three runs
Method: (§1) Cell Surface ELISA for VCAM-1/ICAM-1
(§2) Proliferating human umbilical vein endothelial cells (HUVEC) or human aortic smooth muscle cells (HASMC) from Clonetics (San Diego, Calif.) were plated onto 96-well plates in 100 μL medium per well at 20,000 cells per cm^2. The cultures were maintained in growth medium (EGM or SMGM2, Clonetics, San Diego, Calif.) for two days prior to addition of cytokines or drugs. Cytokines plus or minus compounds were added for 20 to 24 hours prior to analysis for adhesion molecule levels. Tumor necrosis factor (Genzyme, Cambridge, Mass.) was added to cultures at 500-1000 units/mL. Interleukin-4 (GIBCO-BRL, Gaithersburg, Md.) was added to cultures at 100-200 pg/mL. (Additions were made by transferring 100 [μL of cytokines plus compounds serially diluted on a separate 96-well plate into the plates containing cells. The medium on the cultures was not exchanged prior to addition of effectors). The culture medium was removed, and the monolayers were washed twice with Hanks buffered saline solution (HBSS) at room temperature. The primary antibody (anti-human VCAM-1 from Upstate Biotechnology, Inc., Lake Placid, N.Y. or anti-human ICAM-1 from Immunotech, Inc., Westbrook, Me.) was added to each well (1 μg/mL in HBSS plus 5% newborn calf serum, GIBCO-BRL, Gaithersburg, Md.) and incubated at 37° C. for 1 hr. The wells were washed twice with HBSS, then 100 μL of a 1/1000 dilution of goat anti-mouse IgG conjugated to horse radish peroxidase (BioRad, Hercules, Calif.) in HBSS plus 5% newborn calf serum was added to each well and incubated for 1 hr at 37° C. The wells were washed three times with HBSS, then 100 μL of TMB substrate (BioRad, Hercules, Calif.) was added to each well. The reaction was stopped after blue color developed by addition of 50 μL of 1N H2 SO4. Absorbance is measured at 450 nm with a plate reader. IC50 values were determined from curves of absorbance values obtained from serial dilutions of compounds (dissolved in dimethyl sulfoxide).
(§3) The IC50 value is defined as the drug concentration that inhibits the cytokine-induced adhesion molecule expression by 50%. Maximal values for adhesion molecule expression in cytokine-induced cultures was […] the basal level of adhesion molecule expression (minus cytokines) in the cultures to determine the level of induction. […] Each drug concentration was tested in quadruplicate wells. Single point tests of compounds at 50 μM were assayed as described for IC50 determinations, except that the data represent the level of inhibition without correction for basal expression. (Basal adhesion molecule expression was 10-20% of the total induced expression). Table 1 summarizes the ability of various compounds of this invention to inhibit VCAM-1 using human aortic smooth muscle cells (HASMC). In these experiments, the cells were coincubated with interleukin-4 and the compounds listed about 20 hr before assaying cell surface VCAM-1 levels. Each column represents a separate experiment.
(§4) In these experiments, the cells were coincubated with tumor necrosis factor-alpha along with the indicated compounds about 20 to 24 hr before assaying cell surface adhesion molecule expression.

ICAM-1 = assay: Cell surface ELISA for ICAM-1 in human umbilical vein endothelial cells (HUVEC), TNF-alpha induced; format: cell-based; settings: 50 μM, average of two runs, numbers in parentheses represent negative values
Method: as §1, §2, §3, §4

[1] = tested on: oxidation of serum lipids; assay: TBARS assay, rat serum; format: in vivo, male Sprague-Dawley rats; settings: po, 96 h, read-out: TBARS, percent of control
Excerpt: A typical experiment consisted of 4-6 groups of rats (N=5 per group) with 1 group being a control which received no MDL compound and the other groups being treated with 0.3% MDL compound. Some of the compounds were either repeated at 0.3% or evaluated again at the lower dose of 0.1%. Male Sprague-Dawley rats, 50-100 g, (Harlan Laboratories, Indianapolis, Ind.) were housed in groups of 5, fed ad libitum water and Purina Rodent chow (#5002) with or without MDL compound as a dietary admixture for 4 days. Dietary admixtures (0.3%) were made by mixing 1.2 grams of an MDL compound with 400 grams of Purina rodent chow (#5002). The MDL compound was mixed with approximately 50 grams of food using a mortar and pestle. This was added to the remainder of the food and mixed for 3 hours on a rotary mixer. In the morning of day 5, non-fasted rats were anesthetized with carbon dioxide, and blood was collected by cardiac puncture. Rats were sacrificed by cervical dislocation. Body weights and liver weights were recorded in grams. Food consumption was recorded as grams.cndot.day^-1.cndot.rat^-1. Deaths were recorded as mortality. Aliquots of fresh serum were used for clinical chemistries, thiobarbituric acid reactive substances (TBARS) and conjugated diene measurements. Aliquots of serum (~0.5mL) and whole livers were frozen at -20° C. for compound and metabolite concentration determination at a later time.
In this assay the oxidation of serum lipids is initiated with CuSO4, resulting in the formation of aldehydes, such as malondialdehyde (MDA). Upon incubation with thiobarbituric acid, the absorbance of the aldehydes can be detected at 530-540 nm. As stated in the previous example, TBARS values which are lower than control serum values indicate the relative ability of a test compound to inhibit the oxidation of lipids in a sample. TBARS were measured as follows: 100 μL of serum were mixed with 400 μL of a 5 mmol CuSO4 solution and incubated at 37° C. for 3 hr. The reactions were stopped by addition of 1.0 mL of 20% trichloroacetic acid. Then 1.0 mL of 0.67% thiobarbituric acid in 0.05N sodium hydroxide was added, mixed, and the samples incubated for 30 min at 90° C. Samples were centrifuged briefly to pellet undissolved material, and the supernatants were transferred to a 96-well microtiter plate. Absorbances were measured at 540 nm using a Biotek model EL311 microplate reader. The nmoles of MDA produced were calculated from a standard curve of 0 to 10 nmoles of MDA prepared from malonaldehyde bis(dimethylacetal). Serum samples from treated rats were compared to serum samples from control rats that received no MDL compound.

Q: With `CC(C)(C)c1cc(OC[Si](C)(C)c2ccccc2)cc(C(C)(C)C)c1OC(=O)CCC(=O)O` [MDL 103,076, 2,6-Di-t-butyl-4-[(dimethylphenylsilyl)methyloxy]phenol succinic acid ester] as the molecule, how does the VCAM-1 % inh. (VCAM-1) read?
A: Its VCAM-1 % inh. is 7.3%.

Q: And the ICAM-1 % inh. (ICAM-1)?
A: Its ICAM-1 % inh. is 76%.

Q: And the response vs control in vivo at 0.3 % ([1]; Rattus norvegicus)?
A: The response vs control in vivo at 0.3 % was 107%.

Q: With `CC(C)(C)c1cc(SC[Si](C)(C)c2ccccc2)cc(C(C)(C)C)c1OC(=O)CCC(=O)O` [MDL 103,141, 2,6-Di-t-butyl-4-[(dimethylphenylsilyl)methylthio]phenol sucinic acid ester] as the molecule, how does the VCAM-1 % inh. (VCAM-1) read?
A: The VCAM-1 % inh. was 1.3%.

Q: And the ICAM-1 % inh. (ICAM-1)?
A: The ICAM-1 % inh. was 79.5%.

Q: What about the response vs control in vivo at 0.3 % ([1]; Rattus norvegicus) of the same molecule?
A: Its response vs control in vivo at 0.3 % is 113%.

Q: With `CC(=O)Oc1c(C(C)(C)C)cc(OC[Si](C)(C)c2ccccc2)cc1C(C)(C)C` [MDL 103,377, 2,6-Di-t-butyl-4-[(dimethylphenylsilyl)methyloxy]phenol acetic acid ester] as the molecule, how does the VCAM-1 % inh. (VCAM-1) read?
A: The VCAM-1 % inh. was 18.3%.

Q: What about the response vs control in vivo at 0.3 % ([1]; rat serum, diet 0.3%, 4 days) of the same molecule?
A: The response vs control in vivo at 0.3 % was 71%.

Q: Which results are given for `CC(C)(C)c1cc(OC[Si](C)(C)c2ccccc2)ccc1O` [MDL 103,491, 2-t-Butyl-4-[(dimethylphenylsilyl)methyloxy]phenol]?
A: VCAM-1 % inh. (VCAM-1): 12.0%; ICAM-1 % inh. (ICAM-1): 80%; response vs control in vivo at 0.1 % ([1]; rat serum, diet 0.1%, 4 days): 70%; response vs control in vivo at 0.3 % ([1]; rat serum, diet 0.3%, 4 days): 34%

Q: With `CN(C)c1ccc([Si](C)(C)COc2cc(C(C)(C)C)c(O)c(C(C)(C)C)c2)cc1` [MDL 104,556, 2,6-Di-t-butyl-4-[(4-N,N-dimethylaminophenyldimethylsilyl)methyloxy]phenol] as the molecule, how does the VCAM-1 % inh. (VCAM-1) read?
A: Its VCAM-1 % inh. is 33.3%.

Q: What about the ICAM-1 % inh. (ICAM-1) of the same molecule?
A: Its ICAM-1 % inh. is 1.5%.

Q: And the response vs control in vivo at 0.1 % ([1]; rat serum, diet 0.1%, 4 days)?
A: The response vs control in vivo at 0.1 % was 61%.

Q: What about the response vs control in vivo at 0.3 % ([1]; rat serum, diet 0.3%, 4 days) of the same molecule?
A: The response vs control in vivo at 0.3 % was 34%.

Q: Which VCAM-1 % inh. (VCAM-1) does the source give for `CC(C)(C)c1cc(OC[Si](C)(c2ccccc2)c2ccccc2)cc(C(C)(C)C)c1O` [MDL 104,599, 2,6-Di-t-butyl-4-[(diphenylmethylsilyl)methloxy]phenol] here?
A: Its VCAM-1 % inh. is 12.3%.

Q: What about the response vs control in vivo at 0.3 % ([1]; rat serum, diet 0.3%, 4 days) of the same molecule?
A: The response vs control in vivo at 0.3 % was 34%.

Q: How did the response vs control in vivo at 0.3 % ([1]; rat serum, diet 0.3%, 4 days) turn out when `CC(C)(C)c1cc(OC[Si](C)(C)c2ccccc2)c(C(C)(C)C)cc1O` [MDL 104,962, 2,5-Di-t-butyl-4-[(dimethylphenylsilyl)methyloxy]phenol] was run?
A: The response vs control in vivo at 0.3 % was 25%.

Q: For `Cc1cc(OC[Si](C)(C)c2ccccc2)c(C)c(C)c1O` [MDL 105,314, 2,3,6-Trimethyl-4-[(dimethylphenylsdilyl)methloxy]phenol], which VCAM-1 % inh. (VCAM-1) is on record?
A: The VCAM-1 % inh. was 10.7%.

Q: And the ICAM-1 % inh. (ICAM-1)?
A: Its ICAM-1 % inh. is 75.5%.

Q: What about the response vs control in vivo at 0.3 % ([1]; Rattus norvegicus) of the same molecule?
A: Its response vs control in vivo at 0.3 % is 85%.

Q: `CC(=O)Oc1ccc(OC[Si](C)(C)c2ccccc2)cc1C(C)(C)C` [MDL 105,443, 2-t-Butyl-4-[(dimethylphenylsilyl)methyloxy]phenol acetic acid ester] was tested. Which VCAM-1 % inh. (VCAM-1) did it give?
A: Its VCAM-1 % inh. is 3.0%.

Q: And the ICAM-1 % inh. (ICAM-1)?
A: The ICAM-1 % inh. was 73.0%.

Q: What about the response vs control in vivo at 0.1 % ([1]; rat serum, diet 0.1%, 4 days) of the same molecule?
A: Its response vs control in vivo at 0.1 % is 78%.

Q: And the response vs control in vivo at 0.3 % ([1]; rat serum, diet 0.3%, 4 days)?
A: Its response vs control in vivo at 0.3 % is 14%.

Q: With `CC(C)(C)c1cc(OC[Si](C)(C)c2ccc(C(F)(F)F)cc2)cc(C(C)(C)C)c1O` [MDL 105,975, 2,6-Di-t-butyl-4-[(dimethyl-4-trifluoromethylphenylsilyl)methyloxy]phenol] as the molecule, how does the VCAM-1 % inh. (VCAM-1) read?
A: Its VCAM-1 % inh. is 6.3%.

Q: What about the ICAM-1 % inh. (ICAM-1) of the same molecule?
A: The ICAM-1 % inh. was 2.5%.

Q: And the response vs control in vivo at 0.1 % ([1]; Rattus norvegicus)?
A: The response vs control in vivo at 0.1 % was 67%.

Q: What about the response vs control in vivo at 0.3 % ([1]; Rattus norvegicus) of the same molecule?
A: Its response vs control in vivo at 0.3 % is 24%.

Q: `COc1ccc([Si](C)(C)COc2ccc(O)c(C(C)(C)C)c2)cc1` [MDL 106,834, 2-t-Butyl-4-[(dimethyl-p-methoxylphenylsilyl)methyloxy]phenol] was tested. Which response vs control in vivo at 0.3 % ([1]; rat serum, diet 0.3%, 4 days) did it give?
A: The response vs control in vivo at 0.3 % was 31%.
